# Values quoted from earlier work in patent US20240261254A1, “DIHYDROMYRICETIN NANOEMULSION FORMULATIONS AND METHODS FOR FORMING THEM” (Cheers Health, Inc., priority 2018, published 2024).
smiles,measurement,setting,value
"O=C1c2c(O)cc(O)cc2O[C@H](c2cc(O)c(O)c(O)c2)[C@H]1O [DHM, dihydromyricetin]",BCS class,low solubility and permeability,BCS class IV
same,oral bioavailability,reference [39],less than 5%
